Data on 29 compounds can be found in ChEMBL document CHEMBL4828763, “Discovery of Potent and Selective CDK9 Degraders for Targeting Transcription Regulation in Triple-Negative Breast Cancer” (J Med Chem, 2021).

Where only a bound is given, the exact number is not on record here.

Assay type in all cases: functional, cell-based
The test system of one assay is BT-549. Put plainly: Growth inhibition of human BT-549 cells assessed as cell viability measured after 4 days by WST8 assay. As to conditions: BT-549, 96 h.
The test system of another assay is MDA-MB-468. The assay can be described thus: Growth inhibition of human MDA-MB-468 cells assessed as cell viability measured after 4 days by WST8 assay. The following applies: MDA-MB-468, 96 h.
A further assay relates to MDA-MB-231. The assay can be described thus: Growth inhibition of human MDA-MB-231 cells assessed as cell viability measured after 4 days by WST8 assay. As to conditions: MDA-MB-231, 96 h.

Turning to `CC(C)c1cnn2c(NCc3ccc(NC(=O)CCCCCCNc4cccc5c4C(=O)N(C4CCC(=O)NC4=O)C5=O)cc3)nc(OC3CCN(C)CC3)nc12` (configuration not stated), the figures for the IC50 in the assay with BT-549, in the assay on MDA-MB-468 and in the assay on MDA-MB-231 were 0.55 µM, 0.66 µM and 0.53 µM, respectively.

`CC(C)c1cnn2c(NCc3ccccc3N(C)C)nc(OC3CCN(C)CC3)nc12`: the IC50 in the assay with BT-549 worked out at 1.03 µM; in the assay on MDA-MB-468 it was 8.78 µM; in the assay on MDA-MB-231, 11.9 µM.

On to `CC(C)c1cnn2c(NCc3ccccc3-n3ccnc3)nc(OC3CCN(C)CC3)nc12`, for which the IC50 in the assay on BT-549 is 2.26 µM; with MDA-MB-468 it was 3.92 µM; in the assay on MDA-MB-231, 9.29 µM.

`CC(C)c1cnn2c(NCc3ccc(NC(=O)CCCCCCNC(=O)COc4cccc5c4C(=O)N(C4CCC(=O)NC4=O)C5=O)cc3)nc(OC3CCN(C)CC3)nc12` (configuration not stated): the values for the IC50 in the assay with BT-549, in the assay with MDA-MB-468 and in the assay with MDA-MB-231 were 1.63 µM, 1.45 µM and 1.55 µM, respectively.

For the compound `CC(C)c1cnn2c(NCc3ccc(CCCOCCOCCOc4cccc5c4C(=O)N(C4CCC(=O)NC4=O)C5=O)cc3)nc(OC3CCN(C)CC3)nc12` (configuration not stated), the IC50 in the assay on BT-549 came out at 1.57 µM; in the assay on MDA-MB-468, 3.37 µM; with MDA-MB-231 it was 4.45 µM.

For the compound `CC(C)c1cnn2c(NCc3ccc(NC(=O)CCCCCCNC(=O)COc4cccc5c4C(=O)N(C4CCC(=O)NC4=O)C5=O)cc3N(C)C)nc(OC3CCN(C)CC3)nc12` (configuration not stated), the half-inhibitory concentration (IC50) was 14.3 µM with BT-549, over 20 µM in the assay on MDA-MB-468 and over 20 µM in the assay on MDA-MB-231.

Consider `CC(C)c1cnn2c(NCc3ccc(CCCCCCNC(=O)COc4cccc5c4C(=O)N(C4CCC(=O)NC4=O)C5=O)cc3)cc(NCCCCCCN)nc12` (configuration not stated), for which the IC50 in the assay with BT-549 turned out to be 12.9 µM; in the assay on MDA-MB-468, 10.3 µM; with MDA-MB-231, 16.6 µM.

As to `CC(C)c1cnn2c(NCc3ccc(CCCCCCCOc4cccc5c4C(=O)N(C4CCC(=O)NC4=O)C5=O)cc3N(C)C)nc(OC3CCN(C)CC3)nc12` (configuration not stated), the concentration for half-maximal inhibition (IC50) in the assay with BT-549 came out at 4.11 µM; with MDA-MB-468, 2.87 µM; in the assay with MDA-MB-231 it was 4.16 µM.

Take `CC(C)c1cnn2c(NCc3ccc(CCCCCCNC(=O)COc4cccc5c4C(=O)N(C4CCC(=O)NC4=O)C5=O)cc3N(C)C)nc(OC3CCN(C)CC3)nc12` (configuration not stated): the IC50 was 8.39 µM with BT-549, 5.24 µM in the assay on MDA-MB-468 and 5.28 µM in the assay with MDA-MB-231.

For `CC(C)c1cnn2c(NCc3ccccc3N(C)C)nc(OC3CCN(CCOCCNC(=O)COc4cccc5c4C(=O)N(C4CCC(=O)NC4=O)C5=O)CC3)nc12` (configuration not stated), the IC50 in the assay with BT-549, in the assay on MDA-MB-468 and in the assay with MDA-MB-231 was over 20 µM each time.

Turning to `CC(C)c1cnn2c(NCc3cccc(NC(=O)CCCCCCNC(=O)COc4cccc5c4C(=O)N(C4CCC(=O)NC4=O)C5=O)c3)nc(OC3CCN(C)CC3)nc12` (configuration not stated), the IC50 in the assay on BT-549 was 12.8 µM; in the assay with MDA-MB-468, over 20 µM; with MDA-MB-231, over 20 µM.

In the case of `CC(C)c1cnn2c(NCc3ccccc3)nc(OC3CCN(CCOCCNC(=O)COc4cccc5c4C(=O)N(C4CCC(=O)NC4=O)C5=O)CC3)nc12` (configuration not stated), the half-inhibitory concentration (IC50) in the assay on BT-549, in the assay on MDA-MB-468 and in the assay on MDA-MB-231 was over 20 µM each time.

In the case of `CC(C)c1cnn2c(NCc3cccc(CCCCCCNC(=O)COc4cccc5c4C(=O)N(C4CCC(=O)NC4=O)C5=O)c3)cc(NCCCCCCN)nc12` (configuration not stated), the IC50 is 12.8 µM in the assay on BT-549, 16.3 µM with MDA-MB-468 and over 20 µM in the assay on MDA-MB-231.

Consider `CC(C)c1cnn2c(NCc3ccccc3)cc(NCCCCCCNCCOCCOCCOCCNC(=O)COc3cccc4c3C(=O)N(C3CCC(=O)NC3=O)C4=O)nc12` (configuration not stated), for which the 50% inhibitory concentration (IC50) in the assay on BT-549, in the assay with MDA-MB-468 and with MDA-MB-231 was over 20 µM throughout.

Regarding `CC(C)c1cnn2c(NCc3ccc(NC(=O)N4CCN(CCCCCc5cccc6c5CN(C5CCC(=O)NC5=O)C6=O)CC4)cc3)nc(OC3CCN(C)CC3)nc12` (configuration not stated), the half-maximal inhibitory concentration (IC50) with BT-549 amounted to 0.074 µM; with MDA-MB-468, 0.098 µM; in the assay with MDA-MB-231, 0.065 µM.

As to `CC(C)c1cnn2c(NCc3ccccc3)cc(NCCCCCCN)nc12`, the IC50 in the assay on BT-549 was 12.8 µM; with MDA-MB-468, 16.3 µM; in the assay on MDA-MB-231, 18.5 µM.

As to `CC(C)c1cnn2c(NCc3ccc(NC(=O)CCCCCOc4cccc5c4C(=O)N(C4CCC(=O)NC4=O)C5=O)cc3)nc(OC3CCN(C)CC3)nc12` (configuration not stated), the IC50 with BT-549 is 0.64 µM; with MDA-MB-468 it was 0.56 µM; in the assay on MDA-MB-231 it was 0.95 µM.

For the compound `CC(C)c1cnn2c(NCc3ccc(NC(=O)CCCN4CCN(CCCc5cccc6c5CN(C5CCC(=O)NC5=O)C6=O)CC4)cc3)nc(OC3CCN(C)CC3)nc12` (configuration not stated), the values for the IC50 in the assay with BT-549, in the assay on MDA-MB-468 and with MDA-MB-231 were 0.58 µM, 0.59 µM and 0.9 µM, respectively.

On to `CC(C)c1cnn2c(NCc3ccc(NC(=O)CCCCCCNc4cccc5c4C(=O)N(C4CCC(=O)NC4=O)C5=O)cc3N(C)C)nc(OC3CCN(C)CC3)nc12` (configuration not stated), for which the figures for the IC50 with BT-549, in the assay with MDA-MB-468 and with MDA-MB-231 were 2.66 µM, 4.89 µM and 4.26 µM, respectively.

In the case of `CC(C)c1cnn2c(NCc3ccc(NC(=O)CCCN4CCN(CCCCCc5cccc6c5CN(C5CCC(=O)NC5=O)C6=O)CC4)cc3)nc(OC3CCN(C)CC3)nc12` (configuration not stated), the IC50 with BT-549 worked out at 0.19 µM; in the assay with MDA-MB-468, 0.34 µM; in the assay on MDA-MB-231 it was 0.46 µM.

Consider `CC(C)c1cnn2c(NCc3ccc(NC(=O)CCCCCOc4cccc5c4C(=O)N(C4CCC(=O)NC4=O)C5)cc3)nc(OC3CCN(C)CC3)nc12` (configuration not stated), for which the IC50 in the assay on BT-549 is 0.37 µM; with MDA-MB-468, 0.47 µM; in the assay on MDA-MB-231, 0.57 µM.

`CC(C)c1cnn2c(NCc3ccc(NC(=O)COCCOCCOc4cccc5c4C(=O)N(C4CCC(=O)NC4=O)C5=O)cc3)nc(OC3CCN(C)CC3)nc12` (configuration not stated): the IC50 in the assay on BT-549 turned out to be 3.78 µM; with MDA-MB-468, 4.59 µM; in the assay with MDA-MB-231 it was 9.2 µM.

Consider `CC(C)c1cnn2c(NCc3ccccc3-n3ccnc3)nc(OC3CCN(CCOCCNC(=O)COc4cccc5c4C(=O)N(C4CCC(=O)NC4=O)C5=O)CC3)nc12` (configuration not stated), for which the IC50 in the assay with BT-549 is over 20 µM; in the assay on MDA-MB-468, 15.8 µM; in the assay with MDA-MB-231, over 20 µM.

For the compound `CC(C)c1cnn2c(NCc3cccc(CCCCCCCOc4cccc5c4C(=O)N(C4CCC(=O)NC4=O)C5=O)c3N(C)C)nc(OC3CCN(C)CC3)nc12` (configuration not stated), the IC50 was 2.01 µM with BT-549, 3.45 µM in the assay on MDA-MB-468 and 4.16 µM in the assay with MDA-MB-231.

`CC(C)c1cnn2c(NCc3cc(NC(=O)CCCCCCNC(=O)COc4cccc5c4C(=O)N(C4CCC(=O)NC4=O)C5=O)ccc3N(C)C)nc(OC3CCN(C)CC3)nc12` (configuration not stated): the IC50 with BT-549, with MDA-MB-468 and in the assay on MDA-MB-231 was over 20 µM in each case.

Turning to `CC(C)c1cnn2c(NCc3ccc(NC(=O)CCCCCN4CCN(CCCc5cccc6c5CN(C5CCC(=O)NC5=O)C6=O)CC4)cc3)nc(OC3CCN(C)CC3)nc12` (configuration not stated), the IC50 was determined as 0.19 µM in the assay on BT-549, 0.24 µM in the assay on MDA-MB-468 and 0.9 µM in the assay with MDA-MB-231.

For the compound `CC(C)c1cnn2c(NCc3ccccc3-n3ccnc3)nc(OC3CCN(CCOCCOCCOCCNC(=O)COc4cccc5c4C(=O)N(C4CCC(=O)NC4=O)C5=O)CC3)nc12` (configuration not stated), the IC50 in the assay with BT-549 was 21.5 µM; with MDA-MB-468, over 20 µM; in the assay with MDA-MB-231, over 20 µM.

Take `CC(C)c1cnn2c(NCc3ccccc3)nc(OC3CCN(C)CC3)nc12`: the half-inhibitory concentration (IC50) was 0.53 µM with BT-549, 3.07 µM in the assay on MDA-MB-468 and 3.01 µM with MDA-MB-231.

Take `CC(C)c1cnn2c(NCc3ccc(CCCCCCCOc4cccc5c4C(=O)N(C4CCC(=O)NC4=O)C5=O)cc3)nc(OC3CCN(C)CC3)nc12` (configuration not stated): the IC50 in the assay on BT-549 came to 2.06 µM; in the assay with MDA-MB-468 it was 3.22 µM; in the assay on MDA-MB-231, 4.32 µM.
